From patent US9598384B2, “3-(2-amino-ethyl)-alkylidene)-thiazolidine-2,4-dione and 1-(2-amino-ethyl)-alkylidene-1,3-dihydro-indol-2-one derivatives as selective sphingosine kinase 2 inhibitors” (VIRGINIA COMMONWEALTH UNIVERSITY, priority 2012, dated 2017)

Columns and labels:
SphK1 = SphK1 (Homo sapiens, UniProt Q9NYA1); assay: SphK1 activity assay; format: biochemical; conditions: relative activity vs no inhibitor; compounds at 10 μM (FIGS. 1, 4, 6)
Method: A) SphK1 and SphK2 activities were measured with 5 μM sphingosine in the absence or presence of the indicated concentrations of K145 or 10 μM DMS. Data are expressed as percentage SphK activity in the absence of inhibitor; B) Effect of K145 (10 μM) on activity of the indicated enzymes was tested by SelectScreen Kinase Profiling from Invitrogen. CaMK11β, Ca2+/calmodulin-dependent protein kinase II; CDK2, cyclin-dependent kinase 2; EGFR, Epidermal Growth Factor Receptor; Fyn, Fyn Kinase (p55); ERK2, extracellular signal-regulated kinase 2; ERK1, extracellular signal-regulated kinase 1; PKA, protein kinase A; PKCα, protein kinase C α; P13K, phosphatidylinositide 3-kinase. Data are expressed as percentage of control activity averaged from 2 independent experiments.
FIG. 3. SphK2 was incubated with indicated compounds at 10 μM, then the activity of SphK2 was determined. The data shown here is a relative activity of SphK2 compared to control (no inhibitor, column labeled Sph in the Figure). 96047 is a known SpK2 inhibitor. A5, B26, K25 and QLA13 are known compounds [Li et al. (2009) Bioorg Med Chem Lett 19: 6042-6046; Liu et al. (2012) Eur J Med Chem 47: 125-137] and were tested for purposes of comparison. “A” and “B” refer to different batches of a compound. FIG. 4. SphK1 was incubated with indicated compounds at 10 μM, then the activity of SphK1 was determined. The data shown here is a relative activity of SphK1 compared to control (no inhibitor, column labeled Sph in the Figure). 96091 is a known Spk1 inhibitor. A5, B26, K25 and QLA13 are as above for […]. “A” and “B” refer to different batches of a compound.
FIG. 6. SphK1 was incubated with indicated compounds at 10 μM, then the activity of SphK2 was determined. The data shown here is a relative activity of SphK2 compared to control (no inhibitor).

ceramide = assay: Ceramide species in HEK293 cells by LC-ESI-MS/MS; format: cell-based; conditions: 10 μM, 2 h
Method: FIG. 16A-E. K145 accumulates and suppresses the S1P level. A and B) U937 cells were treated with K145 at the indicated concentrations for 3 h and the levels of K145 and S1P were measured by ESI-MS/MS. C) HEK293 cells were treated with K145 (10 μM) for 2 h. Lipids were extracted and different chain length species of ceramide were determined by LC-ESI-MS/MS. Numbers indicate chain length followed by the number of double bonds in the fatty acid. Data are averages of triplicate determinations and are expressed as pmol lipid/10^6 cells. D) U937 cells were treated with or without K145 (10 μM) for 3 h and levels of C1P species were determined by ESI-MS/MS. E) U937 cells were treated with FTY720 (1 μM) in the absence or presence of indicated K145 for 3 h, then FTY720-P was measured by ESI-MS/MS. *P<0.05 compared to control.

SphK2 = target: T1, SphK2 (Homo sapiens, UniProt Q9NRA0); assay: Phosphorylation of FTY720 (SphK2 specific substrate) in U937 cells; format: cell-based; design: U937 cells were treated with FTY720 (1 μM) in the absence or presence of indicated K145 for 3 h; endogenous in cells; host or cells: U937; conditions: FTY720 1 μM, 3 h
T1 sequence (Q9NRA0 1-654): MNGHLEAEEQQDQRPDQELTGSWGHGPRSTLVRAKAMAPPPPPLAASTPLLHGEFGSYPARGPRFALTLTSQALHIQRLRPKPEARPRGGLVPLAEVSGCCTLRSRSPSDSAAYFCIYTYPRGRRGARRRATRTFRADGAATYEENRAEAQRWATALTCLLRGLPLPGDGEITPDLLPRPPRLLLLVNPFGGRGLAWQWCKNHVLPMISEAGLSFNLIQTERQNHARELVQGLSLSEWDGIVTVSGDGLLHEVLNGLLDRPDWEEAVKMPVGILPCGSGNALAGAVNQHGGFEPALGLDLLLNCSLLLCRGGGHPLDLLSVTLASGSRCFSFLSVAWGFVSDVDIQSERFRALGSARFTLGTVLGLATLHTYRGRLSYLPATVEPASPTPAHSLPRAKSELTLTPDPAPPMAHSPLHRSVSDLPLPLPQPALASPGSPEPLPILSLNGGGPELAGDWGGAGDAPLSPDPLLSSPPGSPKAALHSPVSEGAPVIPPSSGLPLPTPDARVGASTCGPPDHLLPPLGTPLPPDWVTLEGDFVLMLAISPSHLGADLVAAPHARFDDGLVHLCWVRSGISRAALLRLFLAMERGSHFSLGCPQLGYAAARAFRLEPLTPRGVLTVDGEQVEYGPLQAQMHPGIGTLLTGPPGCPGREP

U937 xenograft = assay: U937 xenografts in nude mice, oral administration
Method: BALB/c-nu mice (n=7) with palpable U937 xenograft were treated daily with vehicle, tamibarotene (20 mg/kg), or K145 (50 mg/kg) for 15 days by oral gavage. After treatment, animals were sacrificed and tumors were removed, weighed and images were taken. […] Data are expressed as mean value±SEM. *P<0.05 compared to control group.
In this experiment, K145 was given at 50 mg/kg by oral gavage daily for 15 days and tumor volume and animal weights were measured every other day. Again, tamibarotene (20 mg/kg) was used as positive control.

[1] = tested on: Raf/MEK/ERK and PI3K/Akt signaling pathways; assay: Western blot analysis of ERK and Akt phosphorylation; format: cell-based
Method: Cells (5×10^5 per ml) were treated with various concentrations of test compound at 37° C. (5% CO2) for 3 hrs, then stimulated with TPA at a final concentration of 200 nM for 20 min. Samples from whole-cell pellets were prepared and 30 μg protein for each condition was subjected to SDS-PAGE, transferred onto a PVDF membrane, and blocked with 5% fat-free milk for 30 min. The membrane is probed with primary antibodies overnight at 4° C. followed by incubation with horseradish peroxidase-labeled anti-mouse IgG (1:5000, BD Bioscience). The immunoreactive bands are detected by chemilluminescence methods (Pierce) and visualized on Kodak Omat film. The following primary antibodies were used: phospho-p44/42 MAPK (ERK1/2, Thr202/Tyr204), p44/42 MAPK, phospho-p90RSK (Thr359/Ser363), RSK1/RSK2/RSK3 (Cell Signaling). Blots were reprobed with antibodies against α-tubulin to ensure equal loading and transfer of proteins.

Sequence of SphK1 (Q9NYA1 whole entry, species assumed): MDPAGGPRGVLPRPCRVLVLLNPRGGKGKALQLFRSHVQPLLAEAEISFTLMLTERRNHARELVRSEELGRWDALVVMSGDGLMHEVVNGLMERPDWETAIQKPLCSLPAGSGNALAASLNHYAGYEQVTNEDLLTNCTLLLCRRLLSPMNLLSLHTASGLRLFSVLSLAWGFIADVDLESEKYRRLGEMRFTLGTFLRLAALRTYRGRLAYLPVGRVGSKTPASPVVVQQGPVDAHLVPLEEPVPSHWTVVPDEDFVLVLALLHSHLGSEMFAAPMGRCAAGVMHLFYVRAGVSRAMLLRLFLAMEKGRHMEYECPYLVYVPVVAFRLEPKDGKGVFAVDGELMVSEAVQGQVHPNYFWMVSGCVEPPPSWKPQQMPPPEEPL

Compound: CCCCOc1ccc(CC/C=C2\SC(=O)N(CCN)C2=O)cc1 [K145, 3-(2-aminoethyl)-5-[3-(4-butoxyl-phenyl)-propylidene]-thiazolidine-2,4-dione]
- inhibition of SphK1 activity (in words) (SphK1): not SphK1
- ceramide levels (ceramide): without significant effects
- phosphorylation of FTY720 (SphK2): inhibited
- oral availability (U937 xenograft; 50 mg/kg oral gavage): orally available
- toxicity (U937 xenograft; 50 mg/kg oral, 15 days): no apparent toxicity was observed
- body weights (U937 xenograft; 50 mg/kg oral, beginning of the treatment, recovered later): slight decrease of body weights
- TGI (tumor growth inhibition) (U937 xenograft; oral gavage daily 15 days, K145 50 mg/kg, tamibarotene 20 mg/kg): 51.25%
- phosphorylation of both ERK and Akt ([1]; 3 μM, 3 hrs treatment, then TPA stimulation): significantly inhibited
- inhibition of Raf/MEK/ERK and PI3K/Akt signaling pathways ([1]; Western blot, FIGS. 9 and 10): inhibits
